Results reported in ChEMBL document CHEMBL1154429, “Identifying mutator phenotypes among fluoroquinolone-resistant strains of Streptococcus pneumoniae using fluctuation analysis” (2007).

Key:
Assay type in all cases: functional
[1] = system: Streptococcus pneumoniae; assay: Antibacterial activity against Streptococcus pneumoniae D39-3 with parC S79Y, gyrA S81F mutation by […]
[2] = system: Streptococcus pneumoniae; assay: Antibacterial activity against Streptococcus pneumoniae 3386 with parC S79F, gyrA S81F mutation by […]
[3] = system: Streptococcus pneumoniae; assay: Antibacterial activity against Streptococcus pneumoniae 455 with parC S79Y, gyrA S81F mutation by […]

Measured: MIC

C[C@H]1COc2c(N3CCN(C)CC3)c(F)cc3c(=O)c(C(=O)O)cn1c23.C[C@H]1COc2c(N3CCN(C)CC3)c(F)cc3c(=O)c(C(=O)O)cn1c23.O [LEVOFLOXACIN]
> 32 µg/mL: all assays above
